In test [1] the target is T1, S. cerevisiae PDC (Saccharomyces cerevisiae, UniProt P06169).
T1 construct: purchased Sigma
T1 sequence (P06169 2-563 limits assumed): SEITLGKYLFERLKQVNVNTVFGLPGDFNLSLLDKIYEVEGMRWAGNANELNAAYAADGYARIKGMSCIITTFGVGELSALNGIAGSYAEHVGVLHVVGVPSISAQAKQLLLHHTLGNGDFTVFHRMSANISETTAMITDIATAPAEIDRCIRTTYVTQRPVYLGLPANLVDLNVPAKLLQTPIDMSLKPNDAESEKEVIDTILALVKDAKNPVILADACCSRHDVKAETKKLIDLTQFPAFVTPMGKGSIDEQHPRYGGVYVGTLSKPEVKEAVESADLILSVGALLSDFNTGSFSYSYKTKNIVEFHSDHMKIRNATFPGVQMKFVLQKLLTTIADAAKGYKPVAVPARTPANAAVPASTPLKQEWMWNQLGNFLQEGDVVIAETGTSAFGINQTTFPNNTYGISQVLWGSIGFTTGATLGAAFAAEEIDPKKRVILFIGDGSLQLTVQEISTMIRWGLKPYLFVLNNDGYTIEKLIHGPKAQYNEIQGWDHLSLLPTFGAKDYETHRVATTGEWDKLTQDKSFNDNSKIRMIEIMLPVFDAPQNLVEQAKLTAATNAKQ
Briefly: S. cerevisiae PDC inhibitory activity assay (DCPIP reduction). The settings on record: compounds insufficiently soluble were excluded; for inhibition at 1500 µM: read-out: Inhibition (%) Yeast PDC. Format: biochemical. Here is the method:
S. cerevisiae PDC inhibitory activity assay. S. cerevisiae PDC was purchased from Sigma. Its activity was determined by monitoring DCPIP reduction at 600 nm using a microplate reader (CLARIOstar) and conducted as described 1,2 with some modifications. The percentage inhibition of compounds was assayed at a final concentration of 1500 µM. The reaction buffer (50 mM KH 2PO4 and 1 mM MgCl 2, pH 7) contained 300 µM ThDP (or 750 µM in the competition assay), 0.27 mM DCPIP, and 0.15 mg/ml S. cerevisiae PDC. The reaction mixture was preincubated at 37 °C for 60 min, then reaction was initiated by adding pyruvate to a final concentration of 70 mM. Specific activity was calculated using the molar extinction coefficient of DCPIP, 21 mM -1 cm -1.3 […]

Test [2] has as its target T2, E. coli OGDHc E1 (Escherichia coli, UniProt P0AFG3).
T2 sequence (P0AFG3 1-933): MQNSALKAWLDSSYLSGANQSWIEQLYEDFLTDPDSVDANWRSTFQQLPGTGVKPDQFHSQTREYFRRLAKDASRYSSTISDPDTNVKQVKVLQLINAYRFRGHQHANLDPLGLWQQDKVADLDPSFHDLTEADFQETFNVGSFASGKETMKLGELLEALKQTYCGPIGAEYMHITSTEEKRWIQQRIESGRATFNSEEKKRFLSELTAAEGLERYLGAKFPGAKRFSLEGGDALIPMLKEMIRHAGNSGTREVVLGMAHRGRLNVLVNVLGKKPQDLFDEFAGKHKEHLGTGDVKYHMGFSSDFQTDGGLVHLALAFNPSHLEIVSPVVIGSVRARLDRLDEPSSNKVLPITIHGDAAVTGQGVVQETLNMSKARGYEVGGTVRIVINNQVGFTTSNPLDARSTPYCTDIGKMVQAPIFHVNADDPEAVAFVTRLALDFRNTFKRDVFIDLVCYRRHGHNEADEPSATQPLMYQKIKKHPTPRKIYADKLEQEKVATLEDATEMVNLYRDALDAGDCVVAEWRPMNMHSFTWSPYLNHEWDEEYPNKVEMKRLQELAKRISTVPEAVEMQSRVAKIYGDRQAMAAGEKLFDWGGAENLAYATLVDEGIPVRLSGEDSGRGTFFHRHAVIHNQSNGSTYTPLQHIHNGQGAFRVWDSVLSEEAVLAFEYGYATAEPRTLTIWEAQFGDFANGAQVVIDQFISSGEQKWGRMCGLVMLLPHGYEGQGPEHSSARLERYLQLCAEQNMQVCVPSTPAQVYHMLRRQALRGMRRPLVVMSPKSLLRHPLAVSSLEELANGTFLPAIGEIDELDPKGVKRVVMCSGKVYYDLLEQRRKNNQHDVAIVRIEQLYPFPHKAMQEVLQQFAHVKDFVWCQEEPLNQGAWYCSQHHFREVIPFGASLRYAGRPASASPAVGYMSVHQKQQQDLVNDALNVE
Briefly: E. coli OGDHc E1 inhibitory activity assay (DCPIP reduction). Format: biochemical. Here is the method: E. coli OGDHc E1 inhibitory activity assay. E. coli OGDHc E1 was from our previous work 5 and had been donated by R. Frank. Its activity was determined by monitoring DCPIP reduction at 600 nm using a microplate reader (CLARIOstar) and conducted as described 1,2 with some modifications. The percentage inhibition of compounds against E. coli OGDHc E1 was assayed at a final concentration of 250 µM. The reaction buffer (50 mM KH 2PO4 and 2 mM MgCl 2, pH 7) contained 50 µM ThDP (or 125 µM in the competition assay), 0.5 mM DCPIP, and 6.7 mg/ml E. coli OGDHc E1. The reaction mixture was preincubated at 37 °C for 60 min, then reaction was initiated by adding α-ketoglutarate to a final concentration of 10 mM. To determine the IC 50, ThDP concentration was lowered to 30 µM, and inhibitor concentration was varied (2-1000 µM). Specific activity was calculated using the molar […]
for the PDHc E1 assay. […] 5 […]

Where [3] appears, read: [Compound] = 1.5 mM, [ThDP] = 0.3 mM.
Where [4] appears, read: increased ThDP: [Compound] = 1500 μM, [ThDP] = 750 μM.
[5] abbreviates: [Compound] = 250 μM, [ThDP] = 50 μM.
The mark [6] stands for this setting: increased ThDP: [Compound] = 250 μM, [ThDP] = 125 μM.

Read-outs that look alike come from different tables or passages of the source.

Regarding `COc1ccc(-c2cn(CCc3cn(Cc4cnc(C)nc4N)nn3)nn2)cc1` [Compound 17a], the “Inhibition (%) Yeast PDC” value in test [1] (setting [3]) and in test [1] (setting [4]) was “Insoluble” throughout. Also, the inhibition – broadly, how much of the control response was suppressed – at 250 µM is 21 ± 3% in test [2] (setting [5]) and less than 20% in test [2] (setting [6]).
For `Cc1ncc(C[n+]2csc(CCO[P@@](=O)(O)OP(=O)(O)O)c2C)c(O)n1` [OxThDP 7b, oxythiamine diphosphate, reference compound], the figures for the inhibition at 1500 µM in test [1] (setting [3]) and in test [1] (setting [4]) were 81 ± 3% and 63 ± 3%, respectively. Further, the inhibition at 250 µM in test [2] (setting [5]) came out at 62 ± 4%; in test [2] (setting [6]) it was 41 ± 4%.
As for `COc1ccccc1C(=O)NCCCCc1cn(Cc2cnc(C)nc2N)nn1` [Compound 22c], the “Inhibition (%) Yeast PDC” value in test [1] (setting [3]) is listed as “Insoluble”. This compound registered an inhibition at 250 µM in test [2] (setting [5]) of 35 ± 3%.
`Cc1ncc(Cn2cc(CCCNS(=O)(=O)C(F)(F)F)nn2)c(N)n1` [Compound 18b]: in test [1] (setting [3]), the inhibition at 1500 µM came to 37 ± 4%. This compound returned an inhibition at 250 µM in test [2] (setting [5]) of 42 ± 3%.

For the origin of these results see publication PMC10184313, “Inhibition of Thiamine Diphosphate-Dependent Enzymes by Triazole-Based Thiamine Analogues” (ACS Medicinal Chemistry Letters, 2023).
